In patent US20160213742A1, “COMPOSITIONS AND METHODS FOR THE TREATMENT OF FUNGAL INFECTIONS” (priority 2013, published 2016):
Converted amounts (≈) assume the structure as drawn.

Legend:
Format in all cases: cell-based
[1] = test system: C. albicans ATCC 90028; test: microbe, parasite or virus in culture
Description: (§1) The test organisms consisted of strains from the Micromyx collection. Reference isolates were originally received from the American Type Culture Collection (ATCC; Manassas, Va.). Organisms received at Micromyx were initially streaked for isolation on Sabouraud dextrose or potato dextrose agar. Colonies were picked by swab from the medium and resuspended in the appropriate broth containing cryoprotectant. The suspensions were aliquoted into cryogenic vials and maintained at −80° C. Prior to testing, Candida isolates were streaked from the frozen vials on Sabouraud dextrose agar. The yeast isolates were incubated at overnight at 35° C. before use. The fungal isolates were incubated at least 7 days on Sabouraud dextrose agar slants at 35° C. before harvesting.
(§2) Isolates were tested in RPMI medium (Catalog No. SH30011.04; Lot No. AWA92121B; HyClone Labs, Logan, Utah) which was prepared according to CLSI guidelines. The pH of the medium was adjusted to 7.0 with 1 N NaOH. The medium was sterile filtered using a 0.2 μm PES filter and stored at 4° C. until used.
(§3) The MIC assay method employed automated liquid handlers to conduct serial dilutions and liquid transfers. Automated liquid handlers included the Multidrop 384 (Labsystems, Helsinki, Finland), Biomek 2000 and Biomek FX (Beckman Coulter, Fullerton Calif.). The wells in columns 2-12 in standard 96-well microdilution plates (Costar 3795) were filled with 150 μl of the correct diluent (50% DMSO for investigational compounds, 100% DMSO for comparator compounds). These would become the mother plates' from which ‘daughter’ or test plates would be prepared. Stocks were diluted to 40× the desired top concentration in the test plates in the indicated solvent, and 300 μL of the 40× stock was dispensed into the appropriate well in Column 1 of the mother plates. The Biomek 2000 was used to make serial serial 2-fold dilutions through Column 11 in the “mother plate”. The wells of Column 12 contained no drug and served as the organism growth control wells.
(§4) The daughter plates were loaded with 185 μL per well of RPMI described above using the Multidrop 384. The daughter plates were prepared using the Biomek FX which transferred 5 μL of drug solution from each well of a mother plate to the corresponding well of the daughter plate in a single step.
(§5) A standardized inoculum of each organism was prepared. For Candida, colonies were picked from the streak plate and a suspension was prepared in RPMI medium equal to a 0.5 McFarland standard, then diluted 1:100 in RPMI and transferred to compartments of sterile reservoirs divided by length (Beckman Coulter). For the Aspergillus isolates, previously prepared and quantitated suspensions were used to make dilutions in RPMI to reach 20× the final concentration. These dilutions were also transferred to compartments of sterile reservoirs divided by length (Beckman Coulter). The final concentration of the Aspergillus isolates was approximately 0.2-2.5×10^4 CFU/mL.
(§6) The Biomek 2000 was used to inoculate the plates. Daughter plates were placed on the Biomek 2000 work surface reversed so that inoculation took place from low to high drug concentration. The Biomek 2000 delivered 10 μL of standardized inoculum into each well. Thus, the wells of the daughter plates ultimately contained 185 μL of RPMI, 5 μL of drug solution, and 10 μL of inoculum. The final concentration of DMSO in the test well was 2.5% for the evaluated comparators and 1.25% for the investigational agents.
(§7) Plates were stacked 3 high, covered with a lid on the top plate, placed into plastic bags, and incubated at 35° C. for approximately 24-48 hr prior to reading. Plates were read when inoculum was confluent in growth wells. Plates were viewed from the bottom using a plate viewer. […] MICs were read where visible growth of the organism was inhibited. MECs were read where the growth shifted to a small, rounded, compact hyphal form as compared to the hyphal growth seen in the growth control well.

[2] = test system: C. glabrata ATCC 90030; test: microbe, parasite or virus in culture
Description: as §1, §2, §3, §4, §5, §6, §7

[3] = test system: C. krusei ATCC 14243; test: microbe, parasite or virus in culture
Description: as §1, §2, §3, §4, §5, §6, §7

[4] = test system: C. parapsilosis ATCC 22019; test: microbe, parasite or virus in culture
Description: as §1, §2, §3, §4, §5, §6, §7

[5] = test system: A. flavus MX 5948; test: MEC assay (Example 31); conditions: RPMI pH 7.0, 35° C., 24-48 hr
Description: as §1, §2, §3, §4, §5, §6, §7

[6] = test system: A. fumigatus ATCC 13073; test: MEC assay (Example 31); conditions: RPMI pH 7.0, 35° C., 24-48 hr
Description: as §1, §2, §3, §4, §5, §6, §7

[7] = test system: A. fumigatus MX 5944; test: MEC assay (Example 31); conditions: RPMI pH 7.0, 35° C., 24-48 hr
Description: as §1, §2, §3, §4, §5, §6, §7

[8] = test system: A. fumigatus MYA-3626; test: MEC assay (Example 31); conditions: RPMI pH 7.0, 35° C., 24-48 hr
Description: as §1, §2, §3, §4, §5, §6, §7

[9] = test system: A. fumigatus MYA-4609; test: MEC assay (Example 31); conditions: RPMI pH 7.0, 35° C., 24-48 hr
Description: as §1, §2, §3, §4, §5, §6, §7

[10] = C. parapsilosis ATCC 22019, RPMI pH 7.0, 35° C., 24-48 hr

| Structure (SMILES) | MIC ([1]; ATCC 90028, pH 7) [µg/mL] | MIC ([2]; ATCC 90030, pH 7) [µg/mL] | MIC ([3]; ATCC 14243, pH 7) [µg/mL] | MIC ([4]; ATCC 22019, pH 7) [µg/mL] | MEC [5] [µg/mL] | MEC [6] [µg/mL] | MEC [7] [µg/mL] | MEC [8] [µg/mL] | MEC [9] [µg/mL] | MIC [4, 10] [µg/mL] | MIC ([1]; C. albicans ATCC 90028, RPMI pH 7.0, 35° C., 24-48 hr) [µg/mL] | MIC ([2]; C. glabrata ATCC 90030, RPMI pH 7.0, 35° C., 24-48 hr) [µg/mL] | MIC ([3]; C. krusei ATCC 14243, RPMI pH 7.0, 35° C., 24-48 hr) [µg/mL] |
| --- | --- | --- | --- | --- | --- | --- | --- | --- | --- | --- | --- | --- | --- |
| CC[C@H](C)C[C@H](C)CCCCCCCCC(=O)N[C@H]1C[C@@H](O)[C@@H](NCCN)NC(=O)[C@@H]2[C@@H](O)CCN2C(=O)[C@H]([C@H](O)CCNC(=O)CCNC(=O)[C@H](Cc2ccccc2)NC(=O)[C@H](CC(C)C)NC(=O)[C@H](CCSC)NC(=O)OCC(C)C)NC(=O)[C@H]([C@H](O)[C@@H](O)c2ccc(O)cc2)NC(=O)[C@@H]2C[C@@H](O)CN2C(=O)[C@H]([C@@H](C)O)NC1=O [Compound 5] | 2 (≈ 1.21 µM) | 4 (≈ 2.42 µM) | >4 | >4 |  |  |  |  |  |  |  |  |  |
| CC[C@H](C)C[C@H](C)CCCCCCCCC(=O)N[C@H]1C[C@@H](O)[C@@H](NCCNC(=O)CCNC(=O)[C@H](Cc2ccccc2)NC(=O)[C@H](CC(C)C)NC(=O)[C@H](CCSC)NC(=O)OCC(C)C)NC(=O)[C@@H]2[C@@H](O)CCN2C(=O)[C@H]([C@H](O)CCN)NC(=O)[C@H]([C@H](O)[C@@H](O)c2ccc(O)cc2)NC(=O)[C@@H]2C[C@@H](O)CN2C(=O)[C@H]([C@@H](C)O)NC1=O [Compound 6] | 2 (≈ 1.21 µM) | 4 (≈ 2.42 µM) | 8 (≈ 4.83 µM) | >16 |  |  |  |  |  |  |  |  |  |
| CC[C@H](C)C[C@H](C)CCCCCCCCC(=O)N[C@H]1C[C@@H](O)[C@@H](NCCN)NC(=O)[C@@H]2[C@@H](O)CCN2C(=O)[C@H]([C@H](O)CCNC(=O)CCNC(=O)[C@H](Cc2ccccc2)NC(=O)[C@H](CC(C)C)NC(=O)[C@H](CCSC)NC(C)=O)NC(=O)[C@H]([C@H](O)[C@@H](O)c2ccc(O)cc2)NC(=O)[C@@H]2C[C@@H](O)CN2C(=O)[C@H]([C@@H](C)O)NC1=O [Compound 7] | 2 (≈ 1.25 µM) | 8 (≈ 5.01 µM) | 16 (≈ 10 µM) | 32 (≈ 20 µM) | 1 | 1 | 1 | 0.5 | 0.5 |  |  |  |  |
| CC[C@H](C)C[C@H](C)CCCCCCCCC(=O)N[C@H]1C[C@@H](O)[C@@H](NCCNC(=O)C(Cc2ccccc2)NC(=O)C(CC(C)C)NC(=O)C(CCSC)NC(=O)Nc2ccc(Cl)cc2)NC(=O)[C@@H]2[C@@H](O)CCN2C(=O)[C@H]([C@H](O)CCN)NC(=O)[C@H]([C@H](O)[C@@H](O)c2ccc(O)cc2)NC(=O)[C@@H]2C[C@@H](O)CN2C(=O)[C@H]([C@@H](C)O)NC1=O (stereo partly shown) [Compound 13a] |  |  |  |  |  |  |  |  |  | 32 (≈ 19.5 µM) | 2 (≈ 1.22 µM) | 8 (≈ 4.88 µM) | 16 (≈ 9.77 µM) |
| CC[C@H](C)C[C@H](C)CCCCCCCCC(=O)N[C@H]1C[C@@H](O)[C@@H](NCCN)NC(=O)[C@@H]2[C@@H](O)CCN2C(=O)[C@H]([C@H](O)CCNC(=O)CCC(=O)NCCOCCOCCNC(=O)[C@H](Cc2ccccc2)NC(=O)[C@H](CC(C)C)NC(=O)[C@H](CCSC)NC=O)NC(=O)[C@H]([C@H](O)[C@@H](O)c2ccc(O)cc2)NC(=O)[C@@H]2C[C@@H](O)CN2C(=O)[C@H]([C@@H](C)O)NC1=O [Compound 16] | 2 (≈ 1.15 µM) | 32 (≈ 18.4 µM) | >32 | >32 |  |  |  |  |  |  |  |  |  |
| CC[C@H](C)C[C@H](C)CCCCCCCCC(=O)N[C@H]1C[C@@H](O)[C@@H](NCCN)NC(=O)[C@@H]2[C@@H](O)CCN2C(=O)[C@H]([C@H](O)CCNC(=O)[C@H](CCCCN)NC=O)NC(=O)[C@H]([C@H](O)[C@@H](O)c2ccc(O)cc2)NC(=O)[C@@H]2C[C@@H](O)CN2C(=O)[C@H]([C@@H](C)O)NC1=O [Compound 25] | 0.12 (≈ 0.096 µM) | 0.5 (≈ 0.4 µM) | 2 (≈ 1.6 µM) | 1 (≈ 0.8 µM) |  |  |  |  |  |  |  |  |  |

Now from value to molecule, other results behind:

| MIC ([1]; ATCC 90028, pH 7) [µg/mL] | MIC ([2]; ATCC 90030, pH 7) [µg/mL] | MIC ([3]; ATCC 14243, pH 7) [µg/mL] | MIC ([4]; ATCC 22019, pH 7) [µg/mL] | Structure (SMILES) | MEC [5] [µg/mL] | MEC [6] [µg/mL] | MEC [7] [µg/mL] | MEC [8] [µg/mL] | MEC [9] [µg/mL] | MIC [4, 10] [µg/mL] | MIC ([1]; C. albicans ATCC 90028, RPMI pH 7.0, 35° C., 24-48 hr) [µg/mL] | MIC ([2]; C. glabrata ATCC 90030, RPMI pH 7.0, 35° C., 24-48 hr) [µg/mL] | MIC ([3]; C. krusei ATCC 14243, RPMI pH 7.0, 35° C., 24-48 hr) [µg/mL] |
| --- | --- | --- | --- | --- | --- | --- | --- | --- | --- | --- | --- | --- | --- |
| 2 (≈ 1.25 µM) | 4 (≈ 2.5 µM) | 8 (≈ 5.01 µM) | 32 (≈ 20 µM) | CC[C@H](C)C[C@H](C)CCCCCCCCC(=O)N[C@H]1C[C@@H](O)[C@@H](NCCNC(=O)CCNC(=O)[C@H](Cc2ccccc2)NC(=O)[C@H](CC(C)C)NC(=O)[C@H](CCSC)NC(C)=O)NC(=O)[C@@H]2[C@@H](O)CCN2C(=O)[C@H]([C@H](O)CCN)NC(=O)[C@H]([C@H](O)[C@@H](O)c2ccc(O)cc2)NC(=O)[C@@H]2C[C@@H](O)CN2C(=O)[C@H]([C@@H](C)O)NC1=O [Compound 8] | 1 | 1 | 1 | 1 | 1 |  |  |  |  |
| 2 (≈ 1.26 µM) | 8 (≈ 5.05 µM) |  |  | CC[C@H](C)C[C@H](C)CCCCCCCCC(=O)N[C@H]1C[C@@H](O)[C@@H](OCCNC(=O)CCNC(=O)[C@H](Cc2ccccc2)NC(=O)[C@H](CC(C)C)NC(=O)[C@H](CCSC)NC=O)NC(=O)[C@@H]2[C@@H](O)CCN2C(=O)[C@H]([C@H](O)CCN)NC(=O)[C@H]([C@H](O)[C@@H](O)c2ccc(O)cc2)NC(=O)[C@@H]2C[C@@H](O)CN2C(=O)[C@H]([C@@H](C)O)NC1=O [Compound 9] | 0.06 to 0.12 | 0.06 to 0.12 | 0.12 | 0.12 | 0.06 to 0.5 | >16 to 32 |  |  |  |
| 2 (≈ 1.26 µM) | 8 (≈ 5.05 µM) | 16 (≈ 10.1 µM) | 32 (≈ 20.2 µM) | CC[C@H](C)C[C@H](C)CCCCCCCCC(=O)N[C@H]1C[C@@H](O)[C@@H](OCCN)NC(=O)[C@@H]2[C@@H](O)CCN2C(=O)[C@H]([C@H](O)CCNC(=O)CCNC(=O)[C@H](Cc2ccccc2)NC(=O)[C@H](CC(C)C)NC(=O)[C@H](CCSC)NC=O)NC(=O)[C@H]([C@H](O)[C@@H](O)c2ccc(O)cc2)NC(=O)[C@@H]2C[C@@H](O)CN2C(=O)[C@H]([C@@H](C)O)NC1=O [Compound 10] | 0.12 | 0.25 | 0.12 | 0.12 | 0.12 |  |  |  |  |
